The values that follow come from patent US20240166641A1, “HETEROCYCLES AND USES THEREOF” (Kumquat Biosciences Inc., priority 2021, published 2024).

What all share (type): cell-based
Test [1] concerns mouse C57BL/6 T cells. Put plainly: pSTAT1 signaling in IFNα-stimulated T cells, flow cytometry. The settings on record: T-cell, 10 uM compound, T cells stimulated for 5 hours by IFNα, read-out: % pSTAT1 in cells treated with subject compounds relative to negative control (DMSO). Here is the method:
IFNα signaling in mouse C57BL/6 T cells promotes activation of multiple signaling pathways associated with antitumor responses. A key target of this signaling is phosphorylation of the transcription factor STAT1. […] T cells are stimulated for 5 hours by IFNα in the presence or absence of exemplified compounds disclosed herein (e.g., PTPN2 inhibitors) and stained intracellularly with antibodies for phosphorylated STAT1 and then analyzed by flow cytometry. Enhancement of phosphorylation of STAT1 is read out as a percentage over the DMSO control.
For orientation: Flow cytometry measures light scatter and fluorescence of single cells or particles in a stream.

Test [2] has as its system B16F10 mouse melanoma cells. Put plainly: MHC expression associated with IFNγ signaling, flow cytometry. To be noted: B16-F10, 3 uM compound, 48 hours, normalized to DMSO/with IFNγ control, read-out: % MHC in cells treated with Compound at 3 uM relative to negative control (DMSO). Here is the method: B16F10 mouse melanoma cells (ATCC Cat #CRL-6475, Manassas, VA) are seeded at approximately a density of 500 cells per well in a 384-well clear bottom plate (Corning Cat #3765, Corning, 5 NY) in 25 μL total volume of DMEM+10% FBS (Sigma Cat #D6429 and Sigma Cat #F4135, St. Louis, MO). Cells are allowed to adhere overnight at 37° C.+5% CO2. On the following day, 12.5 μL of mouse IFNγ (RD systems Cat #485-MI/CF, Minneapolis, MN) is added to half of the plate (columns 13-24) at a concentration of 2 ng/mL for a final assay concentration of 0.5 ng/mL of IFNγ. Media only (12.5 μL of DMEM+10% FBS) is added to the remainder of the 10 plate (columns 1-12). Next, compounds resuspended in DMSO (Sigma Cat #D2650) at 100 mM are diluted in semi-log dilutions in DMSO ranging from 100 mM to 0.001 mM and DMSO only controls are included. The compound/DMSO dilutions are further diluted 1:250 in DMEM+10% FBS, and 12.5 μL of these dilutions are added in triplicates to cells of both treatment arms (with and without IFNγ). Compounds are only dosed in the inner 240 wells, avoiding the outer 2-well perimeter of the plate to minimize edge effects. Finally, the plate is loaded into an IncuCyte® S3 Live Cell Analysis System (Essen Bioscience-Sartorius, Ann Arbor, MI) maintained in a 37° C.+5% CO2 incubator, allowed to equilibrate for 2 hours, and treated for 48 hours. MHC levels are measured by flow cytometry using a FITC anti-mouse H-2kb antibody (clone AF6-88.5), and levels are normalized based on DMSO/with IFNγ control. Table 7 below summarizes the percentage in MHC expression in cells treated with or without compounds disclosed herein at a specified concentration.

Test [3] has as its system C57B3L/6 mouse primary T cells. The test can be described thus: T-cell activation: CD25 expression on primary T cells stimulated with anti-CD3/CD28. The settings on record: 10 uM compound, primary T cells stimulated with antibodies to CD3 and CD28. Here is the method:
The increase of T cell activation and most importantly T cell function is a strategy for novel immune oncology approaches to promote tumor immunity. In vitro assays using wildtype C57B3L/6 mouse primary T cells are commonly used to assess the impact of compound on T cell activation and function. To assess the ability of compounds disclosed here (e.g., PTPN2 inhibitors) to stimulate T cell activation, primary T cells stimulated with antibodies to CD3 and CD28 are treated with or without exemplary compounds (at 10 uM) disclosed herein are stained with antibodies directed to T-cell activation markers, such as CD25. Additional markers including without limitation CD69, SLAMF6, TIM3, and PD1 can also be employed as a proxy for T cell activation.

`CC(C)CCNc1ccc2cc(O)c(N3CC(=O)NS3(=O)=O)c(F)c2n1` [Compound 117]: in test [1], the activity at 10 µM stood at 210%. The activation at 3 µM in test [2] was > 10%. Moreover, the “% CD25 expression in cells treated with subject compounds relative to negative control (DMSO)” value in test [3] was 363%.
For `CC(C)CCOc1ccc2cc(O)c(N3CC(=O)NS3(=O)=O)c(F)c2n1` [Compound 135, 5-(8-fluoro-6-hydroxy-2-(isopentyloxy)quinolin-7-yl)-1,2,5-thiadiazolidin-3-one 1,1-dioxide] the same measures were 255%, > 10% and 431%.
For the compound `O=C1CN(c2c(O)cc3ccc(OCC4CCS(=O)(=O)CC4)nc3c2F)S(=O)(=O)N1` [Compound 143], the activity at 10 µM in test [1] was found to be 161%. Moreover, the activation at 3 µM in test [2] is > 10%. The “% CD25 expression in cells treated with subject compounds relative to negative control (DMSO)” value in test [3] turned out to be 323%.
As to `CNc1ccc2cc(O)c(N3CC(=O)NS3(=O)=O)c(F)c2n1` [Compound 153], the activity at 10 µM in test [1] is 249%. In addition, the activation at 3 µM in test [2] is > 10%.
For `COc1ccc2cc(O)c(N3CC(=O)NS3(=O)=O)c(F)c2n1` [Compound 154], in test [1], the activity at 10 µM turned out to be 303%. The activation at 3 µM in test [2] is > 10%.
On to `CN1CCCC(COc2ccc3cc(O)c(N4CC(=O)NS4(=O)=O)c(F)c3n2)C1` (stereo not drawn) [Compound 176], for which the activity at 10 µM in test [1] came out at 229%. Further, the activation at 3 µM in test [2] was > 10%. The “% CD25 expression in cells treated with subject compounds relative to negative control (DMSO)” value in test [3] was determined as 206%.
For the compound `CN(C)CCOc1ccc2cc(O)c(N3CC(=O)NS3(=O)=O)c(F)c2n1` [Compound 178], the activity at 10 µM in test [1] was determined as 172%. Moreover, the activation at 3 µM in test [2] was > 10%.
